Reference: ChEMBL document CHEMBL4602669, “Bishomoscalarane Sesterterpenoids from the Sponge Dysidea granulosa Collected in the South China Sea” (2020)

Assays:
Format in all cases: functional
Jurkat = test: Antiproliferative activity against human Jurkat cells by MTT assay
Bel-7402 = test: Antiproliferative activity against human Bel7402 cells by MTT assay
K562 = test: Antiproliferative activity against human K562 cells by MTT assay
A549 = test: Antiproliferative activity against human A549 cells by MTT assay
HCT-116 = test: Antiproliferative activity against human HCT116 cells by MTT assay

| GI50 (Jurkat) [µM] | GI50 (Bel-7402) [µM] | GI50 (K562) [µM] | GI50 (A549) [µM] | GI50 (HCT-116) [µM] | SMILES |
| --- | --- | --- | --- | --- | --- |
| > 30 | > 30 | > 30 | > 30 | > 30 | CC[C@@]1(C)CCC[C@]2(C)[C@H]3C[C@H](O)[C@]4(C)C5=C(CC[C@H]4[C@]3(C)CC[C@@H]12)C(=O)C[C@H]5O |
| > 30 | > 30 | > 30 | > 30 | > 30 | CCC(=O)O[C@H]1C[C@@H]2[C@@]3(C)CCC[C@@]4(C[C@@H]4C)[C@@H]3CC[C@@]2(C)[C@@H]2CCC3=C(C(=O)O[C@H]3C)[C@@]12C |
| > 30 | > 30 | > 30 | > 30 | > 30 | CC(O)CC(=O)O[C@H]1C[C@@H]2[C@@]3(C)CCC[C@@]4(C[C@@H]4C)[C@@H]3CC[C@@]2(C)[C@@H]2C[C@@H](O)C3=C([C@H](O)CC3=O)[C@@]12C (stereo partly drawn) |
| > 30 | > 30 | > 30 | > 30 | > 30 | CCC(=O)O[C@@H](C)[C@@]1(C)CCC[C@@]2(C)[C@H]1CC[C@]1(C)[C@@H]2C[C@H](OC(=O)CC(O)CC)[C@]2(C)C3=C(CC[C@@H]12)[C@H](C)OC3=O (stereo partly drawn) |
| > 30 | > 30 | > 30 | > 30 | > 30 | CC(=O)O[C@@H](C)[C@@]1(C)CCC[C@@]2(C)[C@H]1CC[C@]1(C)[C@@H]2C[C@H](OC(=O)CC(C)O)[C@]2(C)C=C(C(C)=O)[C@H](O)C[C@H]21 (stereo partly drawn) |
| > 30 | > 30 | > 30 | > 30 | > 30 | CC/C1=C/CO[C@@]2(C)[C@@H](O)C[C@@H]3[C@@]4(C)CCC[C@](C)(CC)[C@@H]4CC[C@@]3(C)[C@@H]2CC1 |
| > 30 | > 30 | > 30 | > 30 | > 30 | CC(=O)OC(C)CC(=O)O[C@H]1C[C@@H]2[C@@]3(C)CCC[C@](C)([C@H](C)OC(C)=O)[C@@H]3CC[C@@]2(C)[C@@H]2C[C@@H](O)C(C(C)=O)=C[C@@]12C (stereo partly drawn) |
| – | 14 | 11 | 12 | 14 | CC[C@@]1(C)CCC[C@]2(C)[C@H]3C[C@H](OC(=O)CC(C)O)[C@]45C[C@@H](O)[C@H]4C(C(C)=O)=CC[C@H]5[C@]3(C)CC[C@@H]12 (stereo partly drawn) |
| > 30 | > 30 | > 30 | > 30 | > 30 | CCC(O)CC(=O)O[C@H]1C[C@@H]2[C@@]3(C)CCC[C@](C)([C@H](C)OC(C)=O)[C@@H]3CC[C@@]2(C)[C@@H]2C[C@H](O)C(C(C)=O)=C[C@@]12C (stereo partly drawn) |
| 13 | 11 | – | 8.1 | 6.4 | CC(=O)C1=C[C@@]2(C)[C@@H](OC(=O)CC(C)O)C[C@H]3[C@@](C)(CC[C@@H]4[C@]3(C)CCC[C@@]43C[C@@H]3C)[C@@H]2C[C@H]1O (stereo partly drawn) |
| > 30 | > 30 | > 30 | > 30 | > 30 | CC(=O)O[C@H]1C[C@@H]2[C@@]3(C)CCC[C@@]4(C[C@@H]4C)[C@@H]3CC[C@@]2(C)[C@@H]2CCC3=C(C(=O)O[C@@H]3C)[C@@]12C |
| > 30 | > 30 | > 30 | > 30 | > 30 | CCC(=O)O[C@@H](C)[C@@]1(C)CCC[C@@]2(C)[C@H]1CC[C@]1(C)[C@@H]2C[C@H](OC(=O)CC(O)CC)[C@]2(C)C3=C(CC[C@@H]12)[C@@H](C)OC3=O (stereo partly drawn) |
| > 30 | > 30 | > 30 | > 30 | > 30 | CC(=O)O[C@H]1C[C@@H]2[C@@]3(C)CCC[C@@]4(C[C@@H]4C)[C@@H]3CC[C@@]2(C)[C@@H]2CCC3=C(C(=O)O[C@H]3C)[C@@]12C |
| > 30 | > 30 | > 30 | > 30 | > 30 | CC[C@@]1(C)CCC[C@]2(C)[C@H]3C[C@H](OC(=O)CC(C)O)[C@]4(C)C=C(C(C)=O)[C@H](O)C[C@H]4[C@]3(C)CC[C@@H]12 (stereo partly drawn) |
| < 1 | < 1 | < 1 | < 1 | < 1 | COc1cccc2c1C(=O)c1c(O)c3c(c(O)c1C2=O)C[C@@](O)(C(=O)CO)C[C@@H]3O[C@H]1C[C@H](N)[C@H](O)[C@H](C)O1 [DOXORUBICIN] |
